Measured values as given in ChEMBL document CHEMBL1128833, “Aliphatic replacements of the biphenyl moiety of the nonpeptidyl growth hormone secretagogues L-692,429 and L-692,585” (1995).

Key:
Rattus norvegicus [1] = species on record: Rattus norvegicus; test: In vitro Growth hormone releasing activity in rat pituitary cells; type: functional, Pituitary gland cell; details: read-out: ED50 (the source's name)
Rattus norvegicus [2] = species on record: Rattus norvegicus; test: In vitro Growth hormone releasing activity in rat pituitary cells; weakly active at 1 uM; type: functional; details: Pituitary gland cell, read-out: ED50 (the source's name)
[3] = Rattus norvegicus, Pituitary gland cell

SMILES | EC50 (Rattus norvegicus [1]) [nM] | EC50 (Rattus norvegicus [1]; [3]) [nM] | also measured
CC(C)(N)CC(=O)N[C@@H]1CCc2ccccc2N(CC2=CCC(c3ccccc3-c3nn[nH]n3)CC2)C1=O (stereo in doubt; 34) | 1200 | – | –
CC(C)(N)CC(=O)N[C@@H]1CCc2ccccc2N(CC2CCC(c3ccccc3-c3nn[nH]n3)CC2)C1=O (stereo partly specified) | – | 860 | –
CC(C)(N)CC(=O)N[C@@H]1CCc2ccccc2N(Cc2ccccc2)C1=O | – | 7000 | –
C[C@@H](O)CNC(C)(C)CC(=O)N[C@@H]1CCc2ccccc2N(CC2=CCC(c3ccccc3-c3nn[nH]n3)CC2)C1=O (stereo in doubt; 36) | 25 | – | –
CC(C)(N)CC(=O)N[C@@H]1CCc2ccccc2N(Cc2ccc(-c3ccccc3-c3nn[nH]n3)cc2)C1=O | – | 60 | –
CC(C)(N)CC(=O)N[C@@H]1CCc2ccccc2N(Cc2ccc(-c3ccccc3)c(-c3nn[nH]n3)c2)C1=O | – | – | EC50 (Rattus norvegicus [2]): > 1000 nM
C[C@@H](O)CNC(C)(C)CC(=O)N[C@@H]1CCc2ccccc2N(CC2CCC(c3ccccc3-c3nn[nH]n3)CC2)C1=O (stereo partly specified) | – | 75 | –
C[C@@H](O)CNC(C)(C)CC(=O)N[C@@H]1CCc2ccccc2N(CC2=CCC(c3ccccc3-c3nn[nH]n3)CC2)C1=O (stereo in doubt; 37) | 7 | – | –
CC(C)(N)CC(=O)N[C@@H]1CCc2ccccc2N(Cc2ccc(-c3ccccc3)cc2)C1=O | – | 3000 | –
C[C@@H](O)CNC(C)(C)CC(=O)N[C@@H]1CCc2ccccc2N(Cc2ccc(-c3ccccc3-c3nn[nH]n3)cc2)C1=O [L-692585] | – | 3 | –
CC(C)(N)CC(=O)N[C@@H]1CCc2ccccc2N(CC2=CCC(c3ccccc3-c3nn[nH]n3)CC2)C1=O (stereo in doubt; 35) | 120 | – | –
